Assay [1] relates to C57BL/6 mice, bleomycin-induced fibrotic lung injury. The assay is described as follows: Example 2: therapeutic treatment in bleomycin-induced idiopathic pulmonary fibrosis mouse model. To be noted: OX1 60 mg/kg, Pirfenidone 100 mg/kg. In kind it is in vivo. The source says: The purpose of this study is to induce fibrotic lung injury in mice via a single administration of a glycopeptide antibiotic, bleomycin, in order to evaluate the efficacy of dual sEH and COX-2 inhibitor OX-1 in treating and reducing the symptoms associated with idiopathic pulmonary fibrosis. Pirfenidone, standard of care for the treatment of idiopathic pulmonary fibrosis, was used as a reference compound.
Male C57BL/6 mice from Charles River Laboratories aging of 7-8 weeks and weighing around 18-22 g at the time of their enrollment were used in the study.
Doses of OX1 at 60 mg/kg, Pirfenidone at 100 mg/kg, and the disease inducer Bleomycin at 1.5 mg/kg were used. A dosing rate of 10 mL/kg (approximately 0.2 mL/mouse according to their body weight) of OX1 was administered orally once daily to the mice. The mice received OX1 at 60 mg/kg once daily. A dosing rate of 10 mL/kg (approximately 0.2 mL/mouse according to their body weight) of Pirfenidone solution was administered once daily to the mice of the groups receiving Pirfenidone orally at the dose of 100 mg/kg once daily. A single intratracheal instillation of approximately 50 μL (1.5 mg/kg with a dosing rate of 2.5 mL/kg in sterile 0.9% saline) of bleomycin solution was administered to all mice except the sham group on day 0. Animals in the Sham group received one intratracheal instillation of approximately 50 μL of 0.9% saline solution on Day 0 and returned to their respective cages.
Treatment with the vehicle or test articles were initiated and administered starting on day 7 to day 21 as scheduled and described in Table 1 above. All test articles, reference compound and vehicle were administered to animals orally once daily. Food and water were given ad libitum. Daily observations of the behavioral and general health status of the animals were done. Daily body weight was also measured.
Prior to physiological assessment, all mice were introduced to the plethysmograph chamber environment. After the acclimatization period, the functional respiratory parameters were assessed by the whole-body plethysmograph on Day 0 (before bleomycin instillation), 7, 14 and 21 post-bleomycin instillation. Each measurement was performed with a mouse placed alone in an unrestrained whole-body plethysmography chamber (Buxco Electronics Inc.) to measure respiratory functions. The functional respiratory parameters analyzed included; the respiratory rate, the PenH ([…]) and the inspiratory/expiratory time measurements.
On the surgery day (Day 21), the mice were anesthetized, instrumented and arterial blood oxygen saturation (SpO2) was recorded. Blood oxygen saturation was read off of the pulse oximeter (STARR Life Sciences MouseOx Plus system, Oakmont, Pa.) with the probe attached to the right thigh of the animal. The saturation values were measured in percentage (%). At the moment of the sacrifice, the mouse thoracic cavity was open to expose the lungs and all mice were euthanatized by exsanguination. The trachea was then connected to the cannula of a perfusion system. The left lung was clamped while 1.5 mL of cold PBS solution (3×500 μL) was injected by the trachea to perform a bronchoalveolar lavage fluid (BALF) on the right lobe of the lungs and was collected on ice for further analysis. The total cells count with cells differential, the cytokine levels including TNF-α, TGF-β, IL-4, IL-5 and IL-17a, the total protein content as well as the soluble collagen were assessed in the BALF samples. Once collected, 300 μL of the BALF was transferred in an EDTA tube, kept at 2-4° C. and shipped to Biovet Inc. for the total cells count with cells differential analysis. The remaining BALF sample was centrifuged at 1200 rpm for 10 minutes at 4° C. to remove cells. The supernatant was aliquots and frozen at−80° C. until analysis was performed. […]

For another assay, the target named is T1, human sEH (Homo sapiens, UniProt P34913).
T1 sequence (P34913 1-555): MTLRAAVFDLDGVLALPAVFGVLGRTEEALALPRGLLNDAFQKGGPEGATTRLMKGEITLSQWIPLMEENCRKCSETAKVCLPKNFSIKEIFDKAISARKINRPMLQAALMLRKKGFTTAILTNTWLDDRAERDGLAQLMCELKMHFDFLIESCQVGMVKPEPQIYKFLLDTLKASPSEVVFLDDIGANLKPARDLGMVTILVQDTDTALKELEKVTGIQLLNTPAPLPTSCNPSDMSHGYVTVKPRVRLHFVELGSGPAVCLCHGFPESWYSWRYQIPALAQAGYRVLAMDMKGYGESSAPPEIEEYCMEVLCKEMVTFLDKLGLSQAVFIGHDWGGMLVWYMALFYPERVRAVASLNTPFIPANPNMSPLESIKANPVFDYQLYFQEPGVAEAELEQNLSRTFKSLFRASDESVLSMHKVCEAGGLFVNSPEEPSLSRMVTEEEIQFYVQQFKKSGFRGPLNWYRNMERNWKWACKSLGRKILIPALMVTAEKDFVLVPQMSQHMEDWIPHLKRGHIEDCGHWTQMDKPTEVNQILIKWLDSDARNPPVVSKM
The assay is described as follows: sEH inhibition IC50, fluorescent-based assay with purified recombinant sEH. In kind it is biochemical. On the procedure: sEH inhibition IC50 values for the compounds presented herein can be assayed by a recombinant affinity assay using purified sEHs, from human, mouse or rat, in a fluorescent-based assay. In such an assay, enzymes, e.g., ˜1 nM human sEH, are incubated with a potential inhibitors for 5 min in 25 mM Bis-Tris/HCl buffer (200 μL; pH 7.0) at 30° C. before a substrate, e.g., cyano(2-methoxynaphthalen-6-yl)methyl trans-(3-phenyl-oxyran-2-yl)methyl carbonate, (CMNPC) is added ([S]final=5 μM).

Where “and” joins values, the source holds several entries; their conditions need not be identical. Identical values can stand only once.

What is called IC50 is the concentration at which inhibition is half-maximal.

In the case of `NS(=O)(=O)c1ccc(-n2nc(CCCNC(=O)Nc3ccc(C(F)(F)F)cc3)cc2-c2ccccc2)cc1` [OX1, 4-(5-phenyl-3-{3-[3-(4-trifluoromethyl-phenyl)-ureido]-propyl}-pyrazol-1-yl)-benzenesulfonamide], in assay [1] (BALF day 21, mean), the “Eosinophils (cells)” value is recorded as 580 cells; the “Macrophages (cells)” value came to 204879 cells; the “Soluble collagen” value was 60.4 µg and 60.38 µg; the “Total BALF cytokines (pg) IL-4” value is 0.09 pg. In assay [1] (BALF day 21, mean), the “Total BALF cytokines (pg) IL-5” value worked out at 2.49 pg; the “Total BALF cytokines (pg) IL-6” value worked out at 9.50 pg; the “Total TGFβ” value was 299.3 pg and 299.31 pg. Further, the “Percent Survival (%)” value in assay [1] (BLM mice, oral once daily day 7 to 21) stood at 77.8%. The “Body weight changes from day 7 (%)” value in assay [1] (mean, BLM mice, oral once daily day 7 to 21) is 11.63%. In addition, the IC50 at human sEH was 2 nM.

The values above are taken from patent US20220218667A1, “DUAL INHIBITORS OF SOLUBLE EPOXIDE HYDROLASE AND METHODS OF USE THEREOF” (OROX Biosciences, Inc., priority 2019, published 2022).
